# Test results as given in patent US10973863B2, “Method for regulating, preventing and/or treating pulmonary injury” (SINPHAR PHARMACEUTICAL CO., LTD., priority 2017, dated 2021).
# Experiments:
# MMP-9 = assay: Gelatin zymography: LPS-activated active expression of MMP-9 in NR8383 cells; assay type: cell-based, rat; conditions: LPS 1 μg/mL, 24 hours
# Description: As indicated above, when an inflammatory response occurs in animal's pulmonary tissue, the active inflammatory cells will secret MMPs that will destroy the pulmonary tissue structure, cause more serious pulmonary injury, and lead to the decrement in or the loss of pulmonary functions. […]
# Thereafter, the medium of each group was collected and respectively subjected to the following procedures. A 10% polyacrylamide gel containing 0.2% gelatin was used to carry out the sodium dodecyl sulfate polyacrylamide gel electrophoresis (SDS-PAGE). After the electrophoresis was completed, the gel was sequentially soaked in 2.5% Triton X-100 solution for 90 minutes to remove SDS, soaked in distillation-distillation water (ddH2O) for 30 minutes, and placed in a reaction solution (50 mM Tris-HCl buffer containing 10 mM CaCl2 and 0.02% NaN3) at a temperature of 37° C. for 18 hours. After the foregoing reaction was completed, the gel was stained by a Coomassie blue staining solution, and the image of stained gel was taken and subjected to an image analysis. The image intensity (the image intensity was calculated based on the size of area and the shade of color) of highlight band (i.e., the gelatin in this area was degraded by MMPs, wherein the area locating around 95 kD molecular weight) on the gel of each group can reflect the active expression of MMP-9 of rat alveolar macrophage NR8383 cells under different conditions (the relative active expression of MMP-9 was calculated by serving the results of the blank group as 0% and serving that of the control group as 100%).
# Rat alveolar macrophage NR8383 cells were divided into twenty-eight groups and separately cultivated with the following media for 24 hours: • (1) Blank group: a macrophage growth medium; • (2) Control group: a macrophage growth medium containing 1 μg/mL LPS; • (3) Positive control group: a macrophage growth medium containing 1 μg/mL LPS and 5 μM Prednisolone (a type of corticosteroid; abbreviated as “Pred”; purchased from Sigma-Aldrich); • (4) Extract C (including five sub-groups): a macrophage growth medium containing 1 μg/mL LPS and the extract C provided by [preparation example A-3-2], wherein the extract C is present in the five sub-groups at a concentration of […] respectively; • (5) Extract D (including five sub-groups): a macrophage growth medium containing 1 μg/mL UPS and the extract D provided by [preparation example A-4-2], wherein the extract D is present in the five sub-groups at a concentration of 0.78, 1.56, 3.13, 6.25 and 12.5 respectively; • (6) Extract E (including five sub-groups): a macrophage growth medium containing 1 μg/mL LPS and the extract E provided from [preparation example A-4-3], wherein the extract E is present in the five sub-groups at a concentration of 0.78, 1.56, 3.13, […], and 12.5 respectively; • (7) DATA group (including five sub-groups): a macrophage growth medium containing 1 μg/mL LPS and the dehydrotrametenolic acid (DTTA) provided by [preparation example C-1], wherein the dehydrotrametenolic acid (DTTA) is present in the five sub-groups at a concentration of 0.39, 0.78, 1.56, 3.13 and 6.25 μg/mL respectively; and • (8) PAA group (including live sub-groups): a macrophage growth medium containing 1 μg/mL LPS and the poricoic acid A (PAA) provided from [preparation example C-1], wherein the poricoic acid A (PAA) is present in the five sub-groups at a concentration of 6.25, 12.5, 25, 50 and 100 respectively.
# Thereafter, the medium of each group was collected and analyzed by the analyzing procedures same as that of (1-1).
# [1] = test system: TGFβ-induced intracellular accumulation of collagen in myofibroblast WI38 cells; assay: Picrosirius red staining: TGFβ-induced collagen accumulation in WI38 cells; assay type: cell-based; conditions: 1 ng/mL TGF-β
# Description: As indicated above, the hyperactive expression of MMPs will cause pulmonary injury. Under the most circumstances, the response mechanisms in animals will activate, for example, macrophages will secret TGF-β and TGF-β which can promote the lung fibroblasts to secret collagen, so that the damaged tissues can be recovered. However, the hypersecretion of collagen will also lead to lung fibrosis. To investigate whether FU-LING extracts and its active ingredients are effective in regulating, protecting and/or treating the pulmonary injury-related diseases such as lung fibrosis or not, the Picrosirius red (PSR) staining was conducted as a semi-quantification of collagen, so that the inhibitory rate of FU-LING extract and its active ingredients on the TGFβ-induced intracellular accumulation of collagen in myofibroblast WI38 cells can be determined.
# Myofibroblast WI38 cells (purchased from ATCC, product no. CCL75™) were divided into ten groups and separately cultivated with the following media for 48 hours:
# (1) Blank group: a myolibroblast growth medium;
# (2) Control group: a myofibroblast growth medium containing 1 ng/mL TGF-β (purchased from R&D system);
# (3) Positive control group: a myofibroblast growth medium containing 1 ng/mL TGF-β and 200 μg/mL Pirfenidone (abbreviated as “Pir”; purchased from Sigma-Aldrich);
# (4) Extract A (including four sub-groups): a myofibroblast growth medium containing 1 ng/mL TGF-β and the extract A provided by [Preparation example A-2-2], wherein the extract A is present in the four sub-groups at a concentration of 12.5, 25, 50 and 100 μg/mL respectively; and
# (5) Extract B (including three sub-groups): a myofibroblast growth medium containing 1 ng/ml, TGF-β and the extract B provided by [Preparation example A-2-3], wherein the extract B is present in the […] at a concentration of 12.5, 25 and 50 μg/mL respectively.
# Thereafter, the media were replaced by methanol to fix the cells at a temperature of −20° C. for 1 to 2 hours. After that, the cells were washed with PBS, and then stained with 0.1% PSR staining agent (purchased from Sigma-Aldrich) at room temperature for 4 hours. The stained cells were washed with 0.1% acetic acid, and then lysed with 0.1N sodium hydroxide to provide a lysate. The OD540 (i.e., the absorbance at a wavelength of 540 nm) of the lysate was measured. OD540 value of each group represents the content of collagen in each group, reflecting the content of collagen in fibroblast WI38 cells under different circumstances (the relative content of collagen in each group was calculated by serving the result of blank group as 0% and serving the result of control group as 100%).
# Myofibroblast WI38 cells were divided into twenty-eight groups and separately cultivated with the following media for 24 hours:
# (1) Blank group: a myofibroblast growth medium;
# (3) Positive control group; a myofibroblast growth medium containing 1 ng/mL TGF-β and 200 μg/mL Pirfenidone (abbreviated as “Pir”; purchased from Sigma-Aldrich);
# (4) Extract C group (including five sub-groups): a myofibroblast growth medium containing 1 ng/mL TGF-β and the extract C provided by [preparation example A-3-2], wherein the extract C is present in the five sub-groups at a concentration of […], 6.25 and 12.5 μg/mL respectively;
# (5) Extract D group (including five sub-groups): a myofibroblast growth medium containing 1 ng/mL TGF-β and the extract D provided by [preparation example A-4-2], wherein the extract D is present in the five sub-groups at a concentration of 0.78, 1.56, 3.13, 6.25 and 12.5 μg/mL respectively;
# (6) Extract E group (including five sub-groups): a myofibroblast growth medium containing 1 ng/mL TGF-β and the extract E provided by [preparation example A-4-3], wherein the extract E is present in the five sub-groups at a concentration of 0.78, 1.56, 3.13, 6.25 and 12.5 μg/mL respectively; […]
compound,measurement,setting,value
"C=C(CC[C@@H](C(=O)O)[C@H]1[C@H](O)C[C@@]2(C)C3=CC[C@H]4C(C)(C)[C@@H](O)CC[C@]4(C)C3=CC[C@]12C)C(C)C [DTA, dehydrotumulosic acid]",Relative active expression of MMP-9 (%),"MMP-9; Table 4, 3.13 μg/mL",79.7%
same,Relative active expression of MMP-9 (%),"MMP-9; Table 4, 6.25 μg/mL",83.9%
same,Relative active expression of MMP-9 (%),"MMP-9; Table 4, 12.5 μg/mL",80.7%
"CC(C)=CCC[C@@H](C(=O)O)[C@H]1CC[C@@]2(C)C3=CC[C@H]4C(C)(C)[C@@H](O)CC[C@]4(C)C3=CC[C@]12C [DTTA, dehydrotrametenolic acid]",Relative active expression of MMP-9 (%),"MMP-9; Table 5, 0.39 μg/mL",91%
same,Relative active expression of MMP-9 (%),"MMP-9; Table 5, 0.78 μg/mL",99%
same,Relative active expression of MMP-9 (%),"MMP-9; Table 5, 1.56 μg/mL",79%
same,Relative active expression of MMP-9 (%),"MMP-9; Table 5, 3.13 μg/mL",72%
same,Relative active expression of MMP-9 (%),"MMP-9; Table 5, 6.25 μg/mL",74%
same,Relative content of collagen (%),"[1]; Table 7, 0.39 μg/mL, 24 hours",25%
same,Relative content of collagen (%),"[1]; Table 7, 0.78 μg/mL, 24 hours",100%
same,Relative content of collagen (%),"[1]; Table 7, 1.56 μg/mL, 24 hours",25%
same,Relative content of collagen (%),"[1]; Table 7, 3.13 μg/mL, 24 hours",53%
same,Relative content of collagen (%),"[1]; Table 7, 6.25 μg/mL, 24 hours",70%
"C[C@@H]1C[C@H]2[C@@H]3CCC4=CC(=O)C=C[C@]4(C)[C@@]3(F)[C@@H](O)C[C@]2(C)[C@@]1(O)C(=O)CO [Dex, dexamethasone, reference compound]",Relative active expression of MMP-9 (%),"MMP-9; Table 4, Dex 1 μM, blank 0%, control 100%",100%
"Cc1ccc(=O)n(-c2ccccc2)c1 [Pir, Pirfenidone, reference compound]",Relative content of collagen (%),"[1]; Table 6, Pir 200 μg/mL, 48 hours, blank 0%, control 100%",69%
same,Relative content of collagen (%),"[1]; Table 7, Pir 200 μg/mL, 24 hours, blank 0%, control 100%",0%
"C[C@]12C=CC(=O)C=C1CC[C@@H]1[C@@H]2[C@@H](O)C[C@@]2(C)[C@H]1CC[C@]2(O)C(=O)CO [Pred, Prednisolone, reference compound]",Effect on inhibiting the 1 μg/mL LPS-induced increment in active expression of MMP-9 (in words),MMP-9; all tested concentrations,cannot inhibit
same,Relative active expression of MMP-9 (%),"MMP-9; Table 5, Pred 5 μM, blank 0%, control 100%",97%
